Test results taken from publication PMC12984539 (European journal of pharmacology, 2024).

Test system: μ receptor
Test: Hemi-equilibrium simulation of buprenorphine antagonism of DAMGO
Conditions: chosen to match the experimental DAMGO concentration-response curve

`C[C@@H](NC(=O)[C@@H](N)Cc1ccc(O)cc1)C(=O)NCC(=O)N(C)[C@@H](Cc1ccccc1)C(=O)NCCO` [DAMGO, [D-Ala^2, N-MePhe^4, Gly-ol]-enkephalin] was tested, and the “τ (efficacy of the agonist in the system)” value was 2.3.
